Reference: article PMC11087398, “Evaluation of 1,10-phenanthroline-based hydroxamate derivative as dual histone deacetylases/ribonucleotide reductase inhibitor with antitumor activities” (DARU Journal of Pharmaceutical Sciences, 2024)
Where two headings read alike, the source gives them in different places.

Assays:
HepG2 = assay: MTT cell viability assay; type: cell-based, human; conditions: mean ± SD, read-out: Antiproliferative activity IC50, HepG2
Procedure: (§1) Human cancer cells (SiHa, HepG2, MCF7, Cal27) were obtained from ATCC, while foreskin fibroblast cells were generated at the Manipal School of Life Sciences. Cells were cultured in DMEM with 10% FBS, maintained in an Eppendorf CellXpert® C170 incubator at 37 °C with 5% CO2, and medium was renewed every 48–72 h.
(§2) Cancer cells (1 × 10^5 cells/mL) and fibroblast cells (5 × 10^4 cells/mL) were seeded in 96-well plates. Test compounds, dissolved in DMSO and diluted in DMEM with 10% FBS, were treated for 48 h. MTT (5 mg/mL) was added, and after 4 h, absorbance was measured at 570 and 630 nm using a VARIOSKAN™ 3001 multimode multiplate reader.

SiHa = assay: MTT cell viability assay; type: cell-based, human; conditions: 48 h, mean ± SD, read-out: Antiproliferative activity IC50, SiHa
Procedure: as §1, §2

MCF7 = assay: MTT cell viability assay; type: cell-based, human; conditions: mean ± SD, read-out: Antiproliferative activity IC50, MCF7
Procedure: as §1, §2

Cal27 = assay: MTT cell viability assay; type: cell-based, human; conditions: mean ± SD, read-out: Antiproliferative activity IC50, Cal27
Procedure: as §1, §2

[1] = tested on: foreskin fibroblast cells; assay: MTT cell viability assay; type: cell-based; conditions: 48 h, normal human fibroblast cells, mean ± SD, read-out: Antiproliferative activity IC50, Fibroblast
Procedure: as §1, §2

SiHa cells [2] = assay: Anchorage-dependent colony formation assay; type: cell-based, human; conditions: IC50 concentration of each compound
Procedure: SiHa cells (500 cells/well) were seeded in 6 cm plates. After 24 h, cells were treated with the IC50 concentration of test compounds and incubated for 21 days with media changes every three days. On day 21, colonies were stained with 0.4% crystal violet for 10 min, washed twice with PBS, and then counted.

SiHa cells [3] = assay: In vitro cell migration (scratch) assay; type: cell-based, human; conditions: IC50 concentration, 48 h post-wounding, control group 19.64%
Procedure: SiHa cells were cultured in 6-well plates using DMEM with 10% FBS until they formed a monolayer. A scratch was done on the cell monolayer by using a sterile 200 μL pipette tip. Subsequently, the cells were treated with the PA at IC50 concentration, and the extent of cell migration was assessed by analyzing the wound area at 0th, 24th, and 48th h time intervals using ImageJ software (Wayne Rasband, USA).

SiHa cells [4] = assay: Cell cycle analysis (propidium iodide flow cytometry); type: cell-based, human; conditions: IC50 concentration, 48 h
Text: After trypsinization, cells were fixed in 70% ethanol, treated with RNase-A, stained with propidium iodide, and analyzed using the Partec CyFlow Space with FloMax software (Germany).

SiHa cells [5] = assay: Suppression of cytotoxicity by iron supplementation (FAC co-administration, MTT); type: cell-based, human; conditions: PA at IC50 with FAC 25, 50, 100 µM, MTT after 48 h
Procedure: To confirm the intracellular Fe^3+ chelation ability of PA, three different concentrations (25, 50, 100 µM) of ferric ammonium citrate (FAC) with PA (IC50) were co-administered in SiHa cells, and the cell viability was assessed using MTT after 48 h.

[6] = tested on: HDAC (SiHa cell nuclear extracts); assay: In vitro fluorescent HDAC assay; type: biochemical, human; conditions: substrate Boc-Lys(Ac)-AMC, read-out: HDAC inhibitory activity IC50
Procedure: In a black 96-well plate, HDAC assay buffer, varied concentrations of test compounds, and SiHa cell nucleus extract were combined and incubated for 30 min. The enzymatic reaction commenced with the addition of the fluorescent substrate, Boc-Lys(Ac)-AMC, and lasted for 2 h at 37 °C. Reaction termination involved adding a developer, followed by an additional incubation at room temperature for 10–15 min. Fluorescence intensity was assessed using a VARIOSKAN™ 3001 multimode multiplate reader at an excitation wavelength of 354 nm and emission wavelength of 450 nm.

SiHa cells [7] = assay: Apoptosis assay (Annexin V/propidium iodide flow cytometry); type: cell-based, human; conditions: 48 h
Procedure: SiHa cells were cultured at a density of 1 × 10^6 cells/mL in 10 cm plates. Upon reaching 80% confluency, cells were subjected to 48 h treatment with test compounds (IC50 and IC70). Following two PBS washes, trypsinization, and suspension in Annexin V binding buffer, cells were incubated, stained with propidium iodide, and analyzed for apoptosis using Apoptosis Detection Kit I and Partec CyFlow Space with FloMax software (Germany).

[8] = Partition coefficient 1-octanol/water; type: physicochemical; conditions: 1-octanol/water (MOPS buffer), pH 7.4; read-out: log (Kpart7.4), partition coefficient
Procedure: The partition coefficient (Kpart) of PA was determined in a 1-octanol/water system. 1-octanol was added to MOPS buffer containing PA (IC50), and OD at 276 nm was measured before and after each addition. Kpart values were calculated..

[9] = tested on: intracellular dNTP levels in SiHa cells; assay: dNTP pool analysis (HPLC); type: cell-based, human; conditions: IC50 concentration
Procedure: Harvested duplicate samples (1 million cells each) were washed with ice-cold PBS, and an extraction solution (6.5: 3.5 of acetonitrile and water mixture with 100 mM formic acid) was added. After incubation and centrifugation, the solution was lyophilized, reconstituted in 100 µL HPLC buffer A, and analyzed on a Waters Symmetry C18 column using HPLC. A stepwise gradient of Buffer A and B was employed, with detection at 260 and 280 nm, as mentioned by Crona et al., in 2016 [34]. Quantification was based on peak area measurements in the chromatogram, providing relative quantification of the analyzed components.

[10] = tested on: Acetyl-Histone H3 in SiHa cells; assay: Western blot of acetylated histone H3; type: cell-based, human; conditions: PA 10 and 20 µM, 48 h
Procedure: SiHa cells (2 × 10^5 cells/well) were cultured in 6-well plates, treated with varied concentrations of test compounds for 48 h, and lysed in RIPA buffer. After centrifugation, protein content was quantified using Bradford assay. Protein extracts were subjected to SDS-PAGE and were transferred to the nitrocellulose membrane. Following blocking, membranes were probed with CST antibodies (Acetyl-Histone H3, B-Actin) at 1:3000 dilution and secondary anti-rabbit antibodies (1:5000 dilution). iBright™ CL1500 Imaging System captured the images.

[11] = tested on: RR (3H-thymidine incorporation into DNA of SiHa cells); assay: Inhibition of DNA synthesis (3H-thymidine incorporation) as RR activity; type: cell-based; conditions: Homo sapiens, 48 h treatment
Procedure: SiHa cells (5 × 10^6) were treated with varying test compound concentrations for 48 h. Following incubation, cells were pulsed with 5 nM ^3H-thymidine for 30 min at 37 °C. After collection, washing, and total DNA extraction, radioactivity was quantified as counts per min (CPM) using a Tri-carb 2900TR liquid scintillation (Perkin Elmer, USA).

SMILES	IC50 (HepG2; Homo sapiens, HepG2, 48 h)	IC50 (SiHa; Homo sapiens, SiHa)	IC50 (MCF7; Homo sapiens, MCF7, 48 h)	IC50 (Cal27; Homo sapiens, CAL-27, 48 h)	IC50 [1]	clonogenic efficiency (colony formation) (SiHa cells [2])	IC50 (HepG2; 48 h)	IC50 (SiHa)	IC50 (MCF7; 48 h)	IC50 (Cal27; 48 h)	wound area percentage (SiHa cells [3])	cell cycle progression (SiHa cells [4])	effect of ferric ammonium citrate (FAC) co-administration on cytotoxicity (SiHa cells [5])	IC50 [6]	early apoptosis (SiHa cells [7]; IC50 concentration)	early apoptosis (SiHa cells [7]; IC70 concentration)	logD [8]	intracellular dNTP levels [9]	acetylated Histone H3 levels (western blot) [10]	IC50 [11]
c1cnc2c(c1)ccc1cccnc12 [1,10-Phenanthroline]	> 100 µM	42.9 ± 2.53 µM	48.8 ± 12 µM	53 ± 2.18 µM	> 100 µM	–	–	–	–	–	–	–	–	–	–	–	–	–	–	–
CC(=O)N(O)CCCCCNC(=O)CCC(=O)N(O)CCCCCNC(=O)CCC(=O)N(O)CCCCCN [DFO, Deferoxamine]	> 100 µM	71.5 ± 5.02 µM	> 100 µM	46 ± 3.07 µM	> 100 µM	44.63%	–	–	–	–	–	–	–	–	–	–	–	–	–	–
NC(=O)NO [HU, Hydroxyurea]	–	–	–	–	> 100 µM	–	> 100 µM	> 100 µM	> 100 µM	> 100 µM	–	–	–	–	–	–	–	–	–	–
O=C(CCCCCCC(=O)Nc1cc2cccnc2c2ncccc12)NO [PA, N^1-hydroxy-N^8-(1,10-phenanthrolin-5-yl)octanediamide]	> 100 µM	16.4 ± 4.71 µM	> 100 µM	51 ± 3.08 µM	> 100 µM	1.99%	–	–	–	–	56.33%	increased the cell population at the S phase and a concentration-dependent elevation in the G2/M phase	FAC reduced PA cell toxicity in a concentration-dependent manner	10.8 µM	3.63%	2.58%	0.82	marked decrease in intracellular dNTP levels	dose-dependent increase in acetylated Histone H3 levels	9.34 µM
